Test results: publication PMC5584945, “Evaluation of robenidine analog NCL195 as a novel broad-spectrum antibacterial agent” (PLoS ONE, 2017)
Converted amounts (≈) assume the structure as drawn.

Legend:
S. pneumoniae = experiment: MIC, broth micro-dilution (CLSI); assay type: cell-based, Streptococcus pneumoniae; conditions: for MIC / MIC50 / MIC90: Streptococcus pneumoniae
[1] = tested on: vancomycin-resistant enterococci (VRE); experiment: MIC, broth micro-dilution (CLSI); assay type: cell-based, enterococci (porcine isolates); conditions: for MIC50 / MIC90 / MIC: Enterococcus, VRE
S. pneumoniae D39 = experiment: Minimum bactericidal concentration (MBC); assay type: cell-based; conditions: Streptococcus pneumoniae, 99.9% colony count reduction, read-out: MBC
[2] = Kinetic solubility by nephelometry; assay type: physicochemical; conditions: kinetic from dmso stock
Caco-2 = experiment: In vitro cytotoxicity, WST-1; assay type: cell-based; conditions: Homo sapiens, 24 h exposure, read-out: IC50 values ± SEM
Excerpt: (§1) In order to ensure minimal off target mammalian cell cytotoxicity, we assayed NCL812, NCL195 and NCL219 for in vitro cytotoxicity using a panel of adherent mammalian cell lines: Caco-2 (human colorectal adenocarcinoma cell line), HEL 299 (non-cancerous human lung fibroblast cell line), Hep G2 (human hepatocellular carcinoma cell line), MDBK (normal bovine kidney cell line) and MCF7 (human mammary gland adenocarcinoma cell line). Cell lines were maintained in Dulbecco’s Modified Eagle’s Medium (DMEM; […] After 24 h incubation, media was removed, washed once with medium without antibiotics and fresh medium supplemented with 10% (vol/vol) FBS was added. […] Following exposure for 24 h, WST-1 reagent was added to each well at a final concentration of 10%. […] The IC50 value for each compound against each cell line was determined via non-linear regression (three parameters) using GraphPad Prism v6 software. The robustness of assays was confirmed with selected cell lines (Hep G2 and MDBK) seeded onto a 96–well Microwell Nunclon Delta Surface plate (Thermo Scientific Nunc; Cat No: 136101) at 5 × 10^4 cells per well.

HEL 299 = experiment: In vitro cytotoxicity, WST-1; assay type: cell-based; conditions: Homo sapiens, 24 h exposure, read-out: IC50 values ± SEM
Excerpt: as §1

Hep G2 = experiment: In vitro cytotoxicity, WST-1; assay type: cell-based; conditions: Homo sapiens, HepG2; 24 h exposure; read-out: IC50 values ± SEM
Excerpt: as §1

MCF7 = experiment: In vitro cytotoxicity, WST-1; assay type: cell-based; conditions: Homo sapiens, 24 h exposure, read-out: IC50 values ± SEM
Excerpt: as §1

MDBK = experiment: Real-time cell viability, RealTime-Glo MT; assay type: cell-based, bovine; conditions: 2 or 8 μg/ml, up to 20 h post-treatment
Excerpt: as §1

[3] = S3 Table isolates, absence of FBS

Work on `C/C(=N\NC(=N)N/N=C(\C)c1ccc(C(C)(C)C)cc1)c1ccc(C(C)(C)C)cc1` [NCL219, (E)-N'-((E)-1-(4-(tert-butyl)phenyl)ethylidene)-2-(1-(4-(tert-butyl)phenyl)ethylidene)hydrazine-1-carboximidhydrazide] yielded an MIC range (S. pneumoniae; 21 isolates) of 1 to 8 µg/mL, an MIC range (S. pneumoniae; S1 Table isolates, 5% FBS + 3% washed RBC) of 1 to 8 µg/mL and an MIC range (S. pneumoniae; S1 Table isolates, 10% FBS + 3% washed RBC) of 1 to 8 µg/mL. It also gave an MIC (S. pneumoniae; A66.1 (serotype 3), 5% FBS) of 4 µg/mL (≈ 9.86 µM), an MIC (S. pneumoniae; A66.1 (serotype 3), 10% FBS) of 4 µg/mL (≈ 9.86 µM) and an MIC (S. pneumoniae; ATCC6303, ATCC 6303 (serotype 3), 5% FBS + 3% washed RBC) of 1 µg/mL. For the same compound, the MIC (S. pneumoniae; ATCC6303, ATCC 6303 (serotype 3), 10% FBS + 3% washed RBC) was 1 µg/mL, the MIC (S. pneumoniae; D39/D39LUX (serotype 2), 5% FBS) was 4 µg/mL (≈ 9.86 µM) and the MIC (S. pneumoniae; D39/D39LUX (serotype 2), 10% FBS) was 4 µg/mL (≈ 9.86 µM). The MIC (S. pneumoniae; L82016 (serotype 6B), 5% FBS) was 2 µg/mL (≈ 4.93 µM), the MIC (S. pneumoniae; L82016 (serotype 6B), 10% FBS) was 2 µg/mL (≈ 4.93 µM) and the MIC (S. pneumoniae; P9 (serotype 6A), 5% FBS) was 4 µg/mL (≈ 9.86 µM). It also gave an MIC (S. pneumoniae; P9 (serotype 6A), 10% FBS) of 4 µg/mL (≈ 9.86 µM), an MIC (S. pneumoniae; P21 (serotype 3), 5% FBS) of 4 µg/mL (≈ 9.86 µM) and an MIC (S. pneumoniae; P21 (serotype 3), 10% FBS) of 4 µg/mL (≈ 9.86 µM). For the same compound, the MIC50 (S. pneumoniae; S1 Table isolates, 5% FBS) was 4 µg/mL (≈ 9.86 µM), the MIC90 (S. pneumoniae; S1 Table isolates, 5% FBS) was 4 µg/mL (≈ 9.86 µM) and the MIC50 (S. pneumoniae; S1 Table isolates, 10% FBS) was 4 µg/mL (≈ 9.86 µM). It also gave an MIC90 (S. pneumoniae; S1 Table isolates, 10% FBS) of 8 µg/mL (≈ 19.7 µM), an MIC (S. pneumoniae; TIGR4 (serotype 4), 5% FBS) of 2 µg/mL (≈ 4.93 µM) and an MIC (S. pneumoniae; TIGR4 (serotype 4), 10% FBS) of 2 µg/mL (≈ 4.93 µM). For the same compound, the MIC (S. pneumoniae; WCH16 (serotype 6A), 5% FBS) was 2 µg/mL (≈ 4.93 µM), the MIC (S. pneumoniae; WCH16 (serotype 6A), 10% FBS) was 2 µg/mL (≈ 4.93 µM) and the MIC (S. pneumoniae; WCH43 (serotype 4), 5% FBS) was 2 µg/mL (≈ 4.93 µM). The MIC (S. pneumoniae; WCH43 (serotype 4), 10% FBS) was 2 µg/mL (≈ 4.93 µM), the MIC (S. pneumoniae; WCH46 (serotype 4), 5% FBS) was 4 µg/mL (≈ 9.86 µM) and the MIC (S. pneumoniae; WCH46 (serotype 4), 10% FBS) was 4 µg/mL (≈ 9.86 µM). For the same compound, the MIC (S. pneumoniae; WCH57 (serotype 8), 5% FBS) was 4 µg/mL (≈ 9.86 µM), the MIC (S. pneumoniae; WCH57 (serotype 8), 10% FBS) was 4 µg/mL (≈ 9.86 µM) and the MIC (S. pneumoniae; WCH86 (serotype 4), 5% FBS) was 4 µg/mL (≈ 9.86 µM). For the same compound, the MIC (S. pneumoniae; WCH86 (serotype 4), 10% FBS) was 4 µg/mL (≈ 9.86 µM), the MIC (S. pneumoniae; WCH89 (serotype 7), 5% FBS) was 8 µg/mL (≈ 19.7 µM) and the MIC (S. pneumoniae; WCH89 (serotype 7), 10% FBS) was 4 µg/mL (≈ 9.86 µM). It also gave an MIC (S. pneumoniae; WCH92 (serotype 4), 5% FBS) of 4 µg/mL (≈ 9.86 µM), an MIC (S. pneumoniae; WCH92 (serotype 4), 10% FBS) of 4 µg/mL (≈ 9.86 µM) and an MIC (S. pneumoniae; WCH137 (serotype 6A), 5% FBS) of 4 µg/mL (≈ 9.86 µM). It also gave an MIC (S. pneumoniae; WCH137 (serotype 6A), 10% FBS) of 4 µg/mL (≈ 9.86 µM), an MIC (S. pneumoniae; WCH158 (serotype 19F), 5% FBS) of 8 µg/mL (≈ 19.7 µM) and an MIC (S. pneumoniae; WCH158 (serotype 19F), 10% FBS) of 8 µg/mL (≈ 19.7 µM). The MIC (S. pneumoniae; WCH184 (serotype 19F), 5% FBS) was 2 µg/mL (≈ 4.93 µM), the MIC (S. pneumoniae; WCH184 (serotype 19F), 10% FBS) was 2 µg/mL (≈ 4.93 µM) and the MIC (S. pneumoniae; WCH211 (serotype 11), 5% FBS) was 4 µg/mL (≈ 9.86 µM). The MIC (S. pneumoniae; WCH211 (serotype 11), 10% FBS) was 4 µg/mL (≈ 9.86 µM), the MIC (S. pneumoniae; WU2 (serotype 3), 5% FBS) was 4 µg/mL (≈ 9.86 µM) and the MIC (S. pneumoniae; WU2 (serotype 3), 10% FBS) was 4 µg/mL (≈ 9.86 µM). The “Fold increase of MIC range in the presence of 10% FBS” value ([1]; 10% FBS versus no FBS) was 8 fold, the MIC range ([1]; 20 isolates) was 1 to 2 µg/mL and the MIC50 ([1]; S3 Table isolates, 10% FBS) was 8 µg/mL (≈ 19.7 µM). It also gave an MIC90 ([1]; S3 Table isolates, 10% FBS) of 16 µg/mL (≈ 39.4 µM), an MIC50 [1, 3] of 2 µg/mL (≈ 4.93 µM) and an MIC90 [1, 3] of 2 µg/mL (≈ 4.93 µM). It also gave an MIC ([1]; VRE 1 (49 FR), 10% FBS) of 16 µg/mL (≈ 39.4 µM), an MIC ([1]; VRE 1 (49 FR), absence of FBS) of 2 µg/mL (≈ 4.93 µM) and an MIC ([1]; VRE 2 (53 FR), 10% FBS) of 8 µg/mL (≈ 19.7 µM). For the same compound, the MIC ([1]; VRE 2 (53 FR), absence of FBS) was 2 µg/mL (≈ 4.93 µM), the MIC ([1]; VRE 3 (55 FR), 10% FBS) was 8 µg/mL (≈ 19.7 µM) and the MIC ([1]; VRE 3 (55 FR), absence of FBS) was 2 µg/mL (≈ 4.93 µM). It also gave an MIC ([1]; VRE 4 (57 FR), 10% FBS) of 8 µg/mL (≈ 19.7 µM), an MIC ([1]; VRE 4 (57 FR), absence of FBS) of 2 µg/mL (≈ 4.93 µM) and an MIC ([1]; VRE5 (58 FR), 10% FBS) of 8 µg/mL (≈ 19.7 µM). For the same compound, the MIC ([1]; VRE5 (58 FR), absence of FBS) was 2 µg/mL (≈ 4.93 µM), the MIC ([1]; VRE 6 (59 FR), 10% FBS) was 8 µg/mL (≈ 19.7 µM) and the MIC ([1]; VRE 6 (59 FR), absence of FBS) was 2 µg/mL (≈ 4.93 µM). The MIC ([1]; VRE 7 (270 G), 10% FBS) was 16 µg/mL (≈ 39.4 µM), the MIC ([1]; VRE 7 (270 G), absence of FBS) was 2 µg/mL (≈ 4.93 µM) and the MIC ([1]; VRE 8 (277 G), 10% FBS) was 8 µg/mL (≈ 19.7 µM). It also gave an MIC ([1]; VRE 8 (277 G), absence of FBS) of 1 µg/mL (≈ 2.47 µM), an MIC ([1]; VRE 9 (61 FR), 10% FBS) of 8 µg/mL (≈ 19.7 µM) and an MIC ([1]; VRE 9 (61 FR), absence of FBS) of 1 µg/mL (≈ 2.47 µM). For the same compound, the MIC ([1]; VRE 10 (62 FR), 10% FBS) was 16 µg/mL (≈ 39.4 µM), the MIC ([1]; VRE 10 (62 FR), absence of FBS) was 1 µg/mL (≈ 2.47 µM) and the MIC ([1]; VRE 11 (284 G), 10% FBS) was 8 µg/mL (≈ 19.7 µM). It also gave an MIC ([1]; VRE 11 (284 G), absence of FBS) of 2 µg/mL (≈ 4.93 µM), an MIC ([1]; VRE 12 (290 G), 10% FBS) of 8 µg/mL (≈ 19.7 µM) and an MIC ([1]; VRE 12 (290 G), absence of FBS) of 2 µg/mL (≈ 4.93 µM). For the same compound, the MIC ([1]; VRE 13 (251 G), 10% FBS) was 8 µg/mL (≈ 19.7 µM), the MIC ([1]; VRE 13 (251 G), absence of FBS) was 2 µg/mL (≈ 4.93 µM) and the MIC ([1]; VRE 14 (252 G), 10% FBS) was 8 µg/mL (≈ 19.7 µM). The MIC ([1]; VRE 14 (252 G), absence of FBS) was 2 µg/mL (≈ 4.93 µM), the MIC ([1]; VRE 15 (63 FR), 10% FBS) was 8 µg/mL (≈ 19.7 µM) and the MIC ([1]; VRE 15 (63 FR), absence of FBS) was 2 µg/mL (≈ 4.93 µM). It also gave an MIC ([1]; VRE 16 (60 FR), 10% FBS) of 8 µg/mL (≈ 19.7 µM), an MIC ([1]; VRE 16 (60 FR), absence of FBS) of 2 µg/mL (≈ 4.93 µM) and an MIC ([1]; VRE 17 (45 FR), 10% FBS) of 8 µg/mL (≈ 19.7 µM). It also gave an MIC ([1]; VRE 17 (45 FR), absence of FBS) of 2 µg/mL (≈ 4.93 µM), an MIC ([1]; VRE 18 (69 W), 10% FBS) of 8 µg/mL (≈ 19.7 µM) and an MIC ([1]; VRE 18 (69 W), absence of FBS) of 2 µg/mL (≈ 4.93 µM). The MIC ([1]; VRE 19 (70 W), 10% FBS) was 8 µg/mL (≈ 19.7 µM), the MIC ([1]; VRE 19 (70 W), absence of FBS) was 2 µg/mL (≈ 4.93 µM) and the MIC ([1]; VRE 20 (78 W), 10% FBS) was 8 µg/mL (≈ 19.7 µM). For the same compound, the MIC ([1]; VRE 20 (78 W), absence of FBS) was 2 µg/mL (≈ 4.93 µM), the MIC range ([1]; S3 Table isolates, 10% FBS) was 8 to 16 µg/mL and the MIC range [1, 3] was 1 to 2 µg/mL. It also gave an MBC (S. pneumoniae D39) of 4 µg/mL (≈ 9.86 µM), a solubility ([2]; pH 2.0) of 0.78 to 1.6 µg/mL (≈ 1.92 to 3.94 µM) and a solubility ([2]; pH 6.5) of 0.78 to 1.6 µg/mL (≈ 1.92 to 3.94 µM). For the same compound, the IC50 (Caco-2) was 7.5 ± 0.1 µg/mL (≈ 18.5 µM), the IC50 (HEL 299) was 21.2 ± 0.2 µg/mL (≈ 52.3 µM) and the IC50 (Hep G2) was 7.1 ± 0.1 µg/mL (≈ 17.5 µM). For the same compound, the IC50 (MCF7) was > 128 µg/mL and the “Effect on cell viability (real-time)” value (MDBK) was “had a demonstrable effect on viability at 2 μg/ml”.
